This data set in a line: solvent given as SMILES.

`COc1nc(Nc2ccc3c4c(cccc24)C(=O)c2ccccc2-3)nc(OC)n1`: the fluorescence lifetime turned out to be 9.2 ns (in CC#N); 8.5 ns (in CC(C)=O); 7.7 ns (in CC(C)O); 3.7 ns (in CCCCOCCCC); 7.3 ns (in CCOC(C)=O); 4.9 ns (in CCOCC). The fluorescence lifetime is, setting by setting: (in CO) 7.4 ns; (in Cc1ccccc1) 5.6 ns; (in Clc1ccccc1) 7.4 ns; (in N#Cc1ccccc1) 7 ns; (in O=C1CCCCC1) 7.4 ns.

The compound `CC(C)(C)c1ccc2c(c1)c1cc(C(C)(C)C)ccc1n2-c1ccc(C#Cc2ccc3c4ccc(C#Cc5ccc(C=C(C#N)C#N)cc5)cc4n(-c4ccc(C(F)(F)F)cc4)c3c2)cc1` gave a fluorescence lifetime (in ClCCl) of 0.29 ns.

The compound `CCCCCCCCCCCCN1C(=O)c2c(c3ccc4cc(-c5ccccc5)c(OC)cc4c3c3c2ccc2cc(-c4ccccc4)c(OC)cc23)C1=O` showed a fluorescence lifetime (in ClCCl) of 6.16 ns.

On to `CC(C)(C)c1cc2ccc3cc(C(C)(C)C)cc4c(N(c5ccccc5)c5ccccc5)cc(c1)c2c34`, for which the fluorescence lifetime (in CCCCCC) turned out to be 3.1 ns.

With `Cc1c(C)c(N2c3ccccc3Oc3ccccc32)c(C)c(C)c1B(c1c(C)c(C)c(N2c3ccccc3Oc3ccccc32)c(C)c1C)c1c(C)c(C)c(N2c3ccccc3Oc3ccccc32)c(C)c1C`, the fluorescence lifetime (in CC(C)(C)c1ccc(-n2c3ccc([Si](c4ccccc4)(c4ccccc4)c4ccccc4)cc3c3cc([Si](c4ccccc4)(c4ccccc4)c4ccccc4)ccc32)cc1) stood at 1.3 ns.

With `NS(=O)(=O)c1ccc(N2N=C(c3ccc(O)cc3)CC2c2ccc([N+](=O)[O-])cc2)cc1` (configuration not stated), the fluorescence lifetime is, setting by setting: (in C1CCOC1) 2.19 ns; (in C1COCCO1) 2.06 ns; (in CC#N) 2.21 ns; (in CC(C)O) 1.42 ns; (in CCO) 1.31 ns; (in CCOC(C)=O) 2.37 ns. The fluorescence lifetime runs as follows: (in CN(C)C=O) 2.51 ns; (in CO) 1.4 ns; (in CS(C)=O) 2.43 ns; (in O) 2.94 ns.

As to `COc1ccc2c(c1)C(=O)c1cc(OC)cc(OC)c1-2`, the fluorescence lifetime came to 1.3 ns (in C1CCCCC1) and 0.6 ns (in CC#N).

For `COc1ccc(/C=C/C2=[O+][B-](F)(F)OC(/C=C/c3ccc(OC)c4ccccc34)=C2c2ccccc2)c2ccccc12`, the fluorescence lifetime by setting is: (in CC#N) 0.63 ns; (in CC(C)=O) 1.02 ns; (in CCOC(C)=O) 1.28 ns; (in CCOCC) 1.12 ns; (in ClC(Cl)(Cl)Cl) 0.94 ns; (in ClCCl) 1.91 ns.

Regarding `C(=C\c1ccc2ccccc2c1)/c1ccc(Nc2ccccc2)cc1`, the fluorescence lifetime by setting is: (in CC#N) 0.43 ns; (in CCCCCC) 0.34 ns.

Where the note is “in CC#N”, `Cc1ccc(-c2sc(/C(C#N)=C/c3ccc(C#N)cc3)nc2-c2ccc(Cl)cc2)cc1` had a fluorescence lifetime of 3.02 ns.

Compound `COc1ccc2c(c1)c1cc(OC)ccc1c1c2c2c(C(=O)NC(C)(C)C)ccc(C(=O)NC(C)(C)C)c2c2c3ccc(OC)cc3c3cc(OC)ccc3c21` came in with a fluorescence lifetime (in ClCCl) of 0.85 ns.

For `Nc1ccc(N2C(=O)c3ccc4c5ccc6c7c(ccc(c8ccc(c3c48)C2=O)c75)C(=O)NC6=O)cc1`, the fluorescence lifetime (in CN(C)C=O) came to 2.9 ns.

Regarding `COC(=O)c1c2ccccc2nc2ccccc12`, the fluorescence lifetime runs as follows: (in C1CCOC1) 1.1 ns; (in C1COCCO1) 0.9 ns; (in CC#N) 0.9 ns; (in CCCCCO) 0.7 ns; (in CCCCO) 0.8 ns; (in CCCO) 0.7 ns. The fluorescence lifetime (in CCO) turned out to be 0.8 ns; the fluorescence lifetime (in CO) is 1.2 ns; the fluorescence lifetime (in COCCOC) worked out at 1.3 ns; the fluorescence lifetime (in ClC(Cl)Cl) stood at 0.9 ns; the fluorescence lifetime (in ClCCl) was found to be 1.3 ns; the fluorescence lifetime (in OCCO) amounted to 1.1 ns.

In the case of `CCC1(CC)c2ccccc2-c2c1c1c(c3c2C(CC)(CC)c2cc(/C=C/c4cccs4)ccc2-3)C(CC)(CC)c2cc(/C=C/c3cccs3)ccc2-1`, the fluorescence lifetime (in C1CCOC1) was 1.5 ns.

Under “in ClC(Cl)Cl”, `CC(C)(C)NC(=O)c1c([Si](C)(C)C)cc2ccc3cccc4ccc1c2c34` had a fluorescence lifetime of 6.53 ns.

For the compound `O=Cc1cnc(-c2c3ccccc3cc3ccccc23)nc1`, the fluorescence lifetime runs as follows: (in CCO) 2.3 ns; (in ClCCl) 6.3 ns.

For the compound `O=C([O-])c1ccccc1C1=c2cc3c4c(c2Oc2c1cc1c5c2CCCN5CCC1)CCC[N+]=4CCC3`, the fluorescence lifetime came to 5.25 ns (in CC#N); 4.36 ns (in CC(C)O); 4.17 ns (in CCCCCCCCO); 4.27 ns (in CCCCCCO); 4.3 ns (in CCCCO); 4.3 ns (in CCCO). In addition, the fluorescence lifetime runs as follows: (in CCO) 4.74 ns; (in CN(C)C=O) 4.78 ns; (in CO) 4.59 ns; (in O) 4.91 ns; (in [2H]O[2H]) 4.8 ns.

As for `Cc1cc(C)c(B(c2ccc(N(c3ccccc3)c3ccccc3)cc2)c2c(C)cc(C)cc2C)c(C)c1`, where the note is “in Cc1ccccc1”, the fluorescence lifetime is 4 ns.

As for `CC(=O)O[B-]1(OC(C)=O)OC(/C=C/c2cccc3ccccc23)=CC(/C=C/c2cccc3ccccc23)=[O+]1`, the fluorescence lifetime reads like this: (in C1CCOC1) 5.75 ns; (in CC#N) 4.5 ns; (in CC(C)=O) 4.67 ns; (in CS(C)=O) 4.24 ns; (in Cc1ccccc1) 5.13 ns; (in ClC(Cl)Cl) 5.73 ns. Also, the fluorescence lifetime (in ClCCl) turned out to be 5.99 ns.

As to `c1cc2c3c(c1)OCCCCCCCCOc1cccc(c1-c1c4ccccc4c-3c3ccccc13)OCCCCCCCCO2`, for the setting “in C1CCCCC1”, the fluorescence lifetime came to 8.01 ns.

In the case of `CCC1=C(C)C2=C(C)c3c(I)c(I)c(I)n3[B-](F)(F)[N+]2=C1C`, the fluorescence lifetime runs as follows: (in C1CCCCC1) 0.331 ns; (in CC(C)=O) 0.206 ns; (in CCO) 0.221 ns; (in CCOC(C)=O) 0.241 ns; (in CO) 0.214 ns; (in OCC(F)(F)F) 0.21 ns.

As for `CCCCCCN1C(=O)C(c2ccc(-c3ccc(-n4c5ccccc5c5ccccc54)cc3)cc2)=C(c2ccc(-c3ccc(-n4c5ccccc5c5ccccc54)cc3)cc2)C1=O`, the fluorescence lifetime reads like this: (in ClC(Cl)Cl) 6.4 ns; (in c1ccc2c(c1)c1ccccc1n2-c1ccc(-c2ccc(-n3c4ccccc4c4ccccc43)cc2)cc1) 5.5 ns.

`c1ccc(-n2c(-c3ccc(N(c4ccc(-c5ccc(N(c6ccc(-c7nc8c9ccccc9c9ccccc9c8n7-c7ccccc7)cc6)c6ccc(-c7nc8c9ccccc9c9ccccc9c8n7-c7ccccc7)cc6)cc5)cc4)c4ccc(-c5nc6c7ccccc7c7ccccc7c6n5-c5ccccc5)cc4)cc3)nc3c4ccccc4c4ccccc4c32)cc1` gave a fluorescence lifetime (in ClCCl) of 1.68 ns.

For the compound `CCOC(=O)CN1C(=O)C2=C(c3ccc(C#N)cc3)N(CC(=O)OCC)C(=O)C2=C1c1ccc(C#N)cc1`, the fluorescence lifetime reads like this: (in CC#N) 6.67 ns; (in CS(C)=O) 6.5 ns; (in Cc1ccccc1) 6.48 ns.

In the case of `CCOC(=O)COc1ccc(/C=C/c2cc(C)c3n2[B-](F)(F)[N+]2=C(c4[nH]c(C)cc4C)c4ccccc4C2=C3)cc1`, for the setting “in ClCCl”, the fluorescence lifetime amounted to 5.14 ns.

On to `CCCCCCC(CCCCCC)N1C(=O)c2cccc3c(-c4ccc(OC)cc4)ccc(c23)C1=O`, for which the fluorescence lifetime reads like this: (in CCCCCC) 2.65 ns; (in CCCCCCCCCCCCCC) 3.12 ns; (in CCCCCCCCCCCO) 4.78 ns; (in CCCCO) 5.18 ns; (in CN(C)C=O) 5.24 ns; (in Cc1ccccc1) 3.5 ns. The fluorescence lifetime (in ClC(Cl)Cl) came to 4.11 ns.

In the case of `CCN(CC)c1ccc2c(-c3ccccc3C(=O)O)c3c([o+]c2c1)/C(=C/c1ccc(N2CCCC2)s1)CCC3`, where the note is “in ClCCl”, the fluorescence lifetime stood at 0.16 ns.

As to `CCCCCCCCCCCCOc1cc2cc(N(C)C)ccc2cc1C=C(C#N)C#N`, the fluorescence lifetime (in CS(C)=O) was 2.2 ns.

As to `CC1=N/C(=C\c2cc(N(C)C)ccc2C#N)C(=O)N1C`, the fluorescence lifetime by setting is: (in C1CCOC1) 14.8 ns; (in CC#N) 7 ns; (in CCCCCC) 24.7 ns.

The compound `c1ccc(N(c2ccccc2)c2ccc(-c3ccc(-c4ccc(-c5ccc(-c6ccc(N(c7ccccc7)c7ccccc7)cc6)s5)c5nsnc45)s3)cc2)cc1` displayed a fluorescence lifetime (in ClC(Cl)Cl) of 5.13 ns.

Where the note is “in C1CCCCC1”, `CN(C)c1ccc2nc(-c3ccc(C=C4C(=O)c5ccccc5C4=O)cc3)sc2c1` displayed a fluorescence lifetime of 0.41 ns.

`CCCCOc1ccc(/C=C/C=C/C=C/c2ccc([N+](=O)[O-])cc2)cc1`: the fluorescence lifetime (in Cc1ccccc1) came out at 1.7 ns.

Consider `CCN(CC)c1ccc2c(C(F)(F)F)cc(=O)oc2c1`, for which the fluorescence lifetime runs as follows: (in C1CCCCC1) 4.1 ns; (in CC#N) 0.6 ns; (in CCO) 0.85 ns; (in CCOC(C)=O) 4.6 ns; (in OCC(O)CO) 2.7 ns.

`CCCCN1C(=O)c2cc(Oc3ccc(C(C)(C)C)cc3)c3c4c(Oc5ccc(C(C)(C)C)cc5)c(Oc5ccc(C(C)(C)C)cc5)c5c6c(cc(Oc7ccc(C(C)(C)C)cc7)c(c7c(Oc8ccc(C(C)(C)C)cc8)c(Oc8ccc(C(C)(C)C)cc8)c(c2c37)C1=O)c64)C(=O)N(CCCC)C5=O`: the fluorescence lifetime (in ClC(Cl)Cl) was found to be 6.3 ns.

On to `CCC1(CC)c2cc(B(c3c(C)cc(C)cc3C)c3c(C)cc(C)cc3C)ccc2-c2c1c1c(c3c2C(CC)(CC)c2cc(B(c4c(C)cc(C)cc4C)c4c(C)cc(C)cc4C)ccc2-3)C(CC)(CC)c2cc(B(c3c(C)cc(C)cc3C)c3c(C)cc(C)cc3C)ccc2-1`, for which the fluorescence lifetime (in C1CCOC1) worked out at 4.4 ns.

On to `N#Cc1cc(C#Cc2c(F)c(F)nc(F)c2F)c(C#Cc2c(F)c(F)nc(F)c2F)cc1C#N`, for which the fluorescence lifetime (in CC#N) is 3.92 ns.

Regarding `COc1ccc(-c2cc3c(s2)c(C)cc(=O)n3C)cc1`, the fluorescence lifetime (in ClCCl) is 0.63 ns.

Compound `CCCCCCCCN1C(=O)c2ccc3c4c(-c5ccc6c7ccccc7n(-c7ccccc7)c6c5)cc5c6c(cc(-c7ccc8c9ccccc9n(-c9ccccc9)c8c7)c(c7ccc(c2c37)C1=O)c64)C(=O)N(CCCCCCCC)C5=O` returned a fluorescence lifetime (in ClC(Cl)Cl) of 13.2 ns.

Source of the values: the Deep4Chem optical property database.
